The values below come from ChEMBL document CHEMBL2057108 (Bioorg Med Chem Lett, 2012).

Calls of active or inactive are those of the source. The rule behind the calls is not given here.

The species entered for one data set is Homo sapiens. Description: Selectivity ratio of Ki for human 5HT3A receptor to Ki for human 5HT4C receptor.
Data set [1] has as its target T1, 5-hydroxytryptamine receptor 4 (Homo sapiens, UniProt Q13639). Description: Intrinsic activity at human 5HT4C receptor expressed at 100 fold physiological-level in HEK293 cells assessed as cAMP accumulation relative to 5HT. The class given is functional, cell-based. For orientation: Cyclic AMP is a second messenger, typically raised through Gs and lowered through Gi signalling.

The target of data set [2] is T1, 5-hydroxytryptamine receptor 4. Description: Agonist activity at human 5HT4C receptor expressed in a cell line expressing receptor at 10 fold physiological-level assessed as cAMP accumulation. The class given is functional.
The next data set deals with Cavia porcellus. Description: Agonist activity at 5HT4 receptor in sc dosed guinea pig assessed as decrease in colonic transit time of carmine red dye after 60 mins relative to vehicle treated control. The class given is functional, organism-based.
Data set [3] addresses T1, 5-hydroxytryptamine receptor 4. Description: 5-HT4C receptor-mediated exchange of GDP for europium labeled GTP (intrinsic activity).
The target is the same in data set [4]. Description: Intrinsic activity at human 5HT4C receptor expressed in a cell line expressing receptor at 10 fold physiological-level assessed as cAMP accumulation relative to 5HT. In kind it is functional.
Data set [5] has the same target. Description: 5-HT4C receptor-mediated exchange of GDP for europium labeled GTP (pEC50).
The target in data set [6] is 5-hydroxytryptamine receptor 4 (Cavia porcellus, UniProt O70528). Description: Agonist activity at 5HT4 receptor in guinea pig colon assessed as longitudinal muscle plexus contraction.
5-hydroxytryptamine receptor 4 (Cavia porcellus, UniProt O70528), sequence (O70528 whole entry): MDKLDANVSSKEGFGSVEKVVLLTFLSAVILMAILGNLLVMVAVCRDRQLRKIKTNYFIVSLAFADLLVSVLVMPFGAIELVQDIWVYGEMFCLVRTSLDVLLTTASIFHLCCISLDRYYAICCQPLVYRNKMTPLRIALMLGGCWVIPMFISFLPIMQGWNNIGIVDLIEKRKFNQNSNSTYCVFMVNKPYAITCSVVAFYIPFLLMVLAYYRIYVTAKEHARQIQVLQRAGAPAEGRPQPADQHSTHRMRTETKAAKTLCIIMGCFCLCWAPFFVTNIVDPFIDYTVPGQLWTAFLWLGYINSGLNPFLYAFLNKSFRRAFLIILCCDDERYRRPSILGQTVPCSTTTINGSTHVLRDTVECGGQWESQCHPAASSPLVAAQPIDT
A further data set has as its target hERG (KCNH2) (Homo sapiens, UniProt Q12809). Description: Inhibition of human ERG expressed in CHO cells at 3 uM. The class given is cell-based. The conditions noted are these: CHO cells expressing human ERG.
The target of data set [7] is T1, 5-hydroxytryptamine receptor 4. Description: Agonist activity at human 5HT4C receptor expressed at 100 fold physiological-level in HEK293 cells assessed as cAMP accumulation. In kind it is functional, cell-based.
The target is the same in data set [8]. Description: biochemical.
Description: Displacement of [3H]GR113808 from human recombinant 5HT4C receptor expressed in HEK293 cells
The nature of data set [9]: Half life in rat liver microsomes. The conditions noted are these: liver microsomes. In kind it is ADME, Microsome. For orientation: Liver microsomes are a subcellular fraction often used to study metabolism.
Data set [10] can be described thus: Permeability across human Caco2 cells. The class given is ADME, cell-based. The conditions noted are these: Caco-2, read-out: Kp. In general terms: Caco-2 cells form a polarised layer with tight junctions and transporters.
Data set [11] in a line: Cmax in Sprague-Dawley rat at 5 mg/kg, po. The class given is ADME, organism-based. Also on record: dose 5 mg/kg, route oral. Particulars: in vivo.
Data set [12] is described as follows: Oral bioavailability in Sprague-Dawley rat at 5 mg/kg. The class given is ADME, organism-based. Particulars: in vivo.
Data set [13] is described as follows: AUC (0 to t) in Sprague-Dawley rat at 5 mg/kg, po. In kind it is ADME, organism-based. The arrangement: dose 5 mg/kg, route oral. Particulars: plasma.
Data set [14] is described as follows: Half life in Sprague-Dawley rat at 5 mg/kg, po. In kind it is ADME, organism-based. The arrangement: dose 5 mg/kg, route oral. The conditions noted are these: in vivo.
A further data set has as its system Rattus norvegicus. Description: 5-HT4 receptor-mediated esophageal relaxation in anesthetized rat (following i.v. administration) using digital sonomicrometry. The class given is functional. The conditions noted are these: Sprague-Dawley, iv.

hERG (KCNH2), sequence (Q12809 whole entry): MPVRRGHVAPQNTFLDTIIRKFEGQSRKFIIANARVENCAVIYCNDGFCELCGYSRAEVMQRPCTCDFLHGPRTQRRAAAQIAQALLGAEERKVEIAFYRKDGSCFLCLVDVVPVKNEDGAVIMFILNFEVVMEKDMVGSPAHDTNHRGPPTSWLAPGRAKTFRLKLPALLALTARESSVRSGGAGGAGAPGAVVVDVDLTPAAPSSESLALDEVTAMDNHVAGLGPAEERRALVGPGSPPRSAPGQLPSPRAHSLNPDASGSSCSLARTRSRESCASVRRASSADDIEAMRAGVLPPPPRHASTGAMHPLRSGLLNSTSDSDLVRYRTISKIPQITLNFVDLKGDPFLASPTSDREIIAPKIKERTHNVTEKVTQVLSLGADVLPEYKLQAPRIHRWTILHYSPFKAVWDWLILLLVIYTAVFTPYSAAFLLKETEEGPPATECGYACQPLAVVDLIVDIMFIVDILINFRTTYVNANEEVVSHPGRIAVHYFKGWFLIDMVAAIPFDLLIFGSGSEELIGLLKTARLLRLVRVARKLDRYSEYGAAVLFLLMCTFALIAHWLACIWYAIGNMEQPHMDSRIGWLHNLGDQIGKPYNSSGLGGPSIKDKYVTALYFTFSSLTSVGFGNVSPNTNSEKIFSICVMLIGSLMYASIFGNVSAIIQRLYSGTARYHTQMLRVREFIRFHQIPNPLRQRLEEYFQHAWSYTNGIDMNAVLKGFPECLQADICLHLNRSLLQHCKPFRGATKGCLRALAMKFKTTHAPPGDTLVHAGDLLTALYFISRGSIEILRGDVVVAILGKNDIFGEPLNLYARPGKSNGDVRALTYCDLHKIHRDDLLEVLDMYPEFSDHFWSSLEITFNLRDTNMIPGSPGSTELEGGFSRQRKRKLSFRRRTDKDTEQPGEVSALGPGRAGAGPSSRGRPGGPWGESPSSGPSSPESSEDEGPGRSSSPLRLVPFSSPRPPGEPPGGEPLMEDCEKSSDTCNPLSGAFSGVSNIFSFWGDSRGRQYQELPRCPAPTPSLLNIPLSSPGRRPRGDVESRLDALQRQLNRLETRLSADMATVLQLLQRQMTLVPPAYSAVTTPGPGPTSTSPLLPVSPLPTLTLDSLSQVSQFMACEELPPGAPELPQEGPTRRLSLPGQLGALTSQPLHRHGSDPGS
T1 sequence (Q13639 whole entry): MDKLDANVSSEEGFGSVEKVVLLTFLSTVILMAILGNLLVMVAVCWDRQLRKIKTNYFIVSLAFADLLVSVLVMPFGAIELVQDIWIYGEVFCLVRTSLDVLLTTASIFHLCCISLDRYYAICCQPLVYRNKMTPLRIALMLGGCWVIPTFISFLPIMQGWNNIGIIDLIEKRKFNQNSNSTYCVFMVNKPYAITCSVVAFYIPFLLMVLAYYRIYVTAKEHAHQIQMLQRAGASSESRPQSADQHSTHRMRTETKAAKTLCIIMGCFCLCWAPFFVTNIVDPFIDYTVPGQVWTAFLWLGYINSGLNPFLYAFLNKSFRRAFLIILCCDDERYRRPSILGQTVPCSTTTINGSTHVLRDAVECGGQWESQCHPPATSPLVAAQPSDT

With `CC(C)n1nc(C(=O)N[C@H]2C[C@H]3CC[C@@H](C2)N3)c2ccccc21`, the Ratio Ki in the data set listed under Homo sapiens is under 1.
Consider `CCCCCNC(=N)N/N=C/c1c[nH]c2ccc(OC)cc12` [TEGASEROD], for which the figures for the Intrinsic activity in data set [1], in data set [3] and in data set [4] were 115%, 71% and 99%, respectively. In addition, in [2], the pEC50 – broadly, the negative decadic logarithm of the EC50, by convention in mol/L – is 8.7. In the data set on Cavia porcellus, the result was inactive. In addition, in the data set listed under Homo sapiens, the Ratio Ki was 580. Also, the EC50 – broadly, the concentration at which the effect is half-maximal – in data set [5] was 15.8 nM; in data set [6], 6.31 nM; in [7], 1 nM. In addition, the inhibition (commonly the percentage by which the read-out fell short of the control) at 3 µM against hERG (KCNH2) was 33%.
As to `COC[C@@H]1CCCN1CCCCCCN1[C@@H]2CC[C@H]1C[C@@H](NC(=O)c1nn(C(C)C)c3ccccc13)C2`, in data set [1], the Intrinsic activity stood at 117%. In addition, the Ratio Ki in the data set filed under Homo sapiens turned out to be 14. In addition, in data set [8], the Ki (as a rule, a dissociation constant, usually derived from enzyme kinetics or from competition with a known ligand) is 0.794 nM. The EC50 in data set [7] was 0.794 nM.
Turning to `CC(C)n1nc(C(=O)N[C@H]2C[C@H]3CC[C@@H](C2)N3CCCCCCN2CCN(S(C)(=O)=O)CC2)c2ccccc21`, in data set [1], the Intrinsic activity was 75%. Moreover, the Ratio Ki in the data set listed under Homo sapiens was found to be 3.6. This compound also showed a Ki in [8] of 2.51 nM. The EC50 in data set [7] is 12.6 nM.
Consider `CC(C)n1nc(C(=O)N[C@H]2C[C@H]3CC[C@@H](C2)N3CCCCCCN2CCC(CNS(C)(=O)=O)CC2)c2ccccc21`, for which the Intrinsic activity in data set [1] came out at 91%. For the same compound, in the data set filed under Homo sapiens, the Ratio Ki amounted to 4.3. For the same compound, the Ki in data set [8] is 1.58 nM. For the same compound, the EC50 in data set [7] is 1.58 nM.
On to `CC(C)N(C)CC(O)CN1[C@@H]2CC[C@H]1C[C@@H](NC(=O)c1nn(C(C)C)c3ccccc13)C2` (stereo not given in full), for which the Intrinsic activity in data set [1] was 78%. The Ratio Ki in the data set filed under Homo sapiens came to 6300. For the same compound, the Ki in [8] is 3.98 nM. Also, the half-life (usually how long it takes for the measured level to halve) in data set [9] was over 1.5 h. The Papp in data set [10] is 26 ×10⁻⁶ cm/s. On hERG (KCNH2), this compound displayed an inhibition at 3 µM of 29%. For the same compound, the EC50 in [7] is 5.01 nM.
As to `CC(C)n1nc(C(=O)N[C@H]2C[C@H]3CC[C@@H](C2)N3C[C@H](O)CN2CCN(S(C)(=O)=O)CC2)c2ccccc21`, the Intrinsic activity in data set [1] was found to be 94%. In addition, the Ratio Ki in the data set listed under Homo sapiens came to 240. In data set [8], this compound had a Ki of 7.94 nM. The half-life in [9] is over 1.5 h. Also, the Papp in data set [10] came out at 18 ×10⁻⁶ cm/s. This compound also displayed an inhibition at 3 µM against hERG (KCNH2) of 7%. In addition, the EC50 in data set [7] was 0.794 nM.
Regarding `COC[C@@H]1CCCN1CC(O)CN1[C@@H]2CC[C@H]1C[C@@H](NC(=O)c1nn(C(C)C)c3ccccc13)C2` (stereo not given in full), in data set [1], the Intrinsic activity is 108%. Also, the Ratio Ki in the data set filed under Homo sapiens was found to be 3000. This compound showed a Ki in data set [8] of 3.98 nM. The half-life in data set [9] is 1.25 h. Moreover, in data set [10], the Papp was determined as 48 ×10⁻⁶ cm/s. Moreover, the inhibition at 3 µM against hERG (KCNH2) turned out to be 33%. For the same compound, the EC50 in data set [7] was 2.51 nM.
For the compound `CC(C)n1nc(C(=O)N[C@H]2C[C@H]3CC[C@@H](C2)N3CC(O)CN2CCC(CNS(C)(=O)=O)CC2)c2ccccc21` (stereo not given in full), the Intrinsic activity in data set [1] turned out to be 93%. Besides, the Ratio Ki in the data set filed under Homo sapiens was determined as 19000. In data set [8], this compound had a Ki of 2.51 nM. Further, in data set [9], the half-life was over 1.5 h. For the same compound, in data set [10], the Papp was 1 ×10⁻⁶ cm/s. Besides, the EC50 in data set [7] was 0.631 nM.
With `CC(C)n1nc(C(=O)N[C@H]2C[C@H]3CC[C@@H](C2)N3C[C@@H](O)CN2CCN(S(C)(=O)=O)CC2)c2ccccc21`, in [1], the Intrinsic activity worked out at 86%. Besides, the peak level in data set [11] (Cmax) was 35 ng/mL. Also, the Ratio Ki in the data set listed under Homo sapiens came out at 23000. The same compound had a Ki in [8] of 2.51 nM. For the same compound, in data set [12], the bioavailability (commonly the share of a dose that reaches the circulation, judged against a reference dose that is usually intravenous) was found to be 36%. The AUC(0-t) (as a rule, exposure summed from dosing to a finite time, without extrapolation to infinity) in [13] was 240 ng·h/mL. For the same compound, the half-life in [14] is 7.4 h; in data set [9], over 1.5 h. In data set [10], the Papp came to 19 ×10⁻⁶ cm/s. This compound also showed an inhibition at 3 µM on hERG (KCNH2) of 7%. The EC50 in data set [7] is 0.398 nM.
With `CC(C)n1nc(C(=O)N[C@H]2C[C@H]3CC[C@@H](C2)N3CCN2CCN(S(C)(=O)=O)CC2)c2ccccc21`, the Intrinsic activity in data set [1] is 88%. Also, the Cmax – broadly, the highest concentration seen after dosing – in data set [11] came to 99 ng/mL. The Ratio Ki in the data set filed under Homo sapiens was 110. This compound gave a Ki in data set [8] of 12.6 nM. The same compound came in with a bioavailability in data set [12] of 48%. Also, the AUC(0-t) in [13] was 260 ng·h/mL. The results for the half-life in data set [14] and in data set [9] were 1.8 h and over 1.5 h, respectively. Further, in [10], the Papp is 31 ×10⁻⁶ cm/s. Besides, 3 µM produced 9% inhibition against hERG (KCNH2). Also, the EC50 in data set [7] is 3.98 nM.
Regarding `CC(C)n1nc(C(=O)N[C@H]2C[C@H]3CC[C@@H](C2)N3CC(O)CN2CCCCC2)c2ccccc21` (stereo not given in full), in data set [1], the Intrinsic activity was 85%. Further, the Ratio Ki in the data set listed under Homo sapiens was 13000. Further, the Ki in data set [8] is 2 nM. In [9], the half-life is over 1.5 h. The Papp in data set [10] came to 30 ×10⁻⁶ cm/s. Further, at hERG (KCNH2), testing at 3 µM gave an inhibition of 62%. In addition, in data set [7], the EC50 was 2 nM.
As to `CC(C)N(C)CCCCCCN1[C@@H]2CC[C@H]1C[C@@H](NC(=O)c1nn(C(C)C)c3ccccc13)C2`, the Intrinsic activity in data set [1] came out at 92%. Also, in the data set listed under Homo sapiens, the Ratio Ki was found to be 23. In addition, the Ki in [8] is 1 nM. Also, the EC50 in [7] is 5.01 nM.
The corresponding values for `CC(C)n1nc(C(=O)N[C@H]2C[C@H]3CC[C@@H](C2)N3CCCCCCN2CCCCC2)c2ccccc21` are 102%, 12, 1 nM and 2.51 nM.
With `CC(C)n1c(=O)c(C(=O)N[C@H]2C[C@H]3CC[C@@H](C2)N3C[C@@H](O)CN2CCN(S(C)(=O)=O)CC2)cc2ccccc21`, the EC50 is 2 nM in data set [2] and 3.98 nM in data set [5]. For the same compound, the ED50 (commonly the dose that gives a 50% effect, or the effect in half of the subjects) in the data set on Rattus norvegicus worked out at 0.142 mg/kg. Further, the Ratio Ki in the data set listed under Homo sapiens stood at 7400. In addition, the Intrinsic activity in data set [3] and in data set [4] was over 100% in each case.
`CC(C)n1nc(C(=O)N[C@H]2C[C@H]3CC[C@@H](C2)N3CC(O)CN2CCN(S(C)(=O)=O)CC2)c2ccccc21` (stereo not given in full): the Intrinsic activity in [1] came to 95%. For the same compound, in the data set filed under Homo sapiens, the Ratio Ki was 7300. Further, the Ki in data set [8] was 3.98 nM. In addition, the half-life in data set [9] is over 1.5 h. For the same compound, the Papp in [10] was 19 ×10⁻⁶ cm/s. For the same compound, on hERG (KCNH2), 3 µM produced 4% inhibition. For the same compound, in data set [7], the EC50 is 0.794 nM.
